Measured values published in the OPERA property sets (Mansouri et al. 2018).

logP | Structure (SMILES)
0.4 | OC1C2CCC(C2)C1O (stereo unspecified)
0.4 | OC1CC2CCC1C2O (stereo unspecified)
1.99 | OCC1CC2CCC1C2 (stereo unspecified)
0.99 | OC1CC2C=CC1C2 (stereo unspecified)
1.45 | OC1CC2CCC1C2 (stereo unspecified)
0.81 | O=C1C2CC3C(C2)C13
1.58 | C1CC2CC1C1OC21 (stereo unspecified)
3.24 | C1=CC2CCC1C2
2.67 | C1=CC2C=CC1C2

The remaining lines, values behind:

Structure (SMILES) | logP
C1C2C3C2C2C1C32 (stereo unspecified) | 2.9
ClC1CC2CCC1C2 (stereo unspecified) | 3.35
OC(C1CC1)C1CC1 | 1.07
BrC1C2CC3C(C2)C13 (stereo unspecified) | 3.11
C1CC2CCC1C2 | 3.78
BrC1CC2CCC1C2 (stereo unspecified) | 3.54
OC1C2CC3C1C3C2O (stereo unspecified) | -0.42
